# Reference: article PMC8502122, “A comprehensive method for determining cellular uptake of purine nucleoside phosphorylase and adenylosuccinate synthetase inhibitors by H. pylori” (Applied Microbiology and Biotechnology, 2021)
# Where two headings read alike, the source gives them in different places.
# Legend:
# [1] = pKa values and ionic form at pH 7; format: physicochemical
# Source text: Table 3 Partition coefficients of the neutral and ionized forms, and pKa values of the tested compounds, and of metronidazole used as a control in the cellular uptake studies. Partition coefficients of the ionic forms observed at pH 7 are marked bold | column: Ionic form at pH 7
# [2] = ref Giziewicz and Shugar [1977], Wierzchowski and Shugar [1982], Bzowska et al. [1992] (formycins), Gottlieb and Shaw [2013] (hadacidin), cited from earlier work; for pKa (first value): Hellgren et al. [1995] (metronidazole)
# [3] = system: H. pylori 26695 strain cells; test: Cellular uptake (accumulation test), LC–MS detection; format: cell-based
# Procedure: Formycin A, formycin B, and metronidazole were quantified through the ultra-performance liquid chromatography–tandem mass spectrometry. Samples were analyzed on Waters Xevo TQ-S with a standard ESI ion source coupled to Waters Acquity I-class UPLC.
# Calibration samples were prepared by spiking blank growth medium F12 by the tested inhibitor, formycin A, formycin B, or metronidazole solutions. Internal standards (IS) were used to improve the accuracy of the method. To each pipetted sample from a particular experiment, the same amount of IS was added. As a detector response, we considered the ratio of the analyte peak area (variable) to the internal standard peak area (constant). This allows compensation for signal changes due to a possible instability of the ion source. If the ionization efficiency changes, both compounds are affected, but the surface peak ratio is maintained. […] Samples and calibrators were precipitated using IS solution and injected on the instrument.
# Calibration curves were acquired by plotting the concentration of the standards against the ratio of the analyte peak area to the IS peak area. The calibration curve for FA in low concentration (35 μM) consisted of 7 samples in the range from 0.23 to 37.5 μM (R^2 = 0.997); for FA in high concentration (350 μM), the curve consisted of 6 samples in the range from 3.7 to 374.7 μM (R^2 = 0.995); for FB in low concentration (35 μM), the curve consisted of 7 samples in the range from 0.291 to 46.5 μM (R^2 = 0.999); for FB in high concentration (350 μM), the curve consisted of 7 samples in the range from 2.91 to 465.0 μM (R^2 = 0.999); and for MTZ (0.5 μM), the calibration curve was 8 samples in the range from 0.584 to 584.2 nM (R^2 = 0.995).
# Chromatography was run on Waters Acquity BEH C18, 1.7 μm, 2.1 mm × 50 mm analytical column thermostated at 70 °C. The separations were done using 2.5 min gradient method. Phase A was 0.1% formic acid in MilliQ water; phase B was 0.1% formic acid in acetonitrile. For formycins the gradient started at 5% B and increased linearly to 50% B in 1.6 min; at 1.8 min it returned to the starting condition for column equilibration. For metronidazole the gradient started at 5% B and increased linearly to 50% B in 1.3 min; at 2.0 min it returned to the starting condition for column equilibration. The flow rate was 600 μL/min in both methods. The retention time of FA was 0.42 min, FB was 0.45 min (see Fig. 4a, b), and MTZ 0.88 min.
# [4] = system: H. pylori SS1 strain; test: MIC by broth microdilution and FICI of 1:1 combinations, strain SS1; format: cell-based; details: Helicobacter pylori, SS1STRAIN, 72 h, combinations 1:1 w/w given as inhibitor a/inhibitor b
# Procedure: (§1) Minimal inhibitory concentration of inhibitors was determined by an in vitro broth microdilution assay (Knezevic et al. [2018]). Briefly, double-strength Brain heart infusion broth (BHI) was supplemented with yeast extract (2.5%), horse serum (5%), and IsoVitaleX (1%). In each well, twofold serial dilutions of inhibitors (from 1000 µg/mL to 7.8 μg/mL in a final volume) and an equal volume of inoculated double-strength BHI were added (approx. 1 × 10^6 CFU/mL in final volume). Amoxicillin was used as a positive control, and distilled water as a negative control. The microtiter plates were incubated at 37 °C under microaerobic conditions in moist atmosphere for 3 days. […] During the incubation, in wells with viable H. pylori urease produced by the bacteria converted urea into ammonia and carbon dioxide, changing the pH and color of a phenol red indicator in the medium (from orange to purple). The plates were examined visually for color change and OD560 was measured after 4 h in order to determine presence/absence of growth. The MIC is defined as the lowest concentration of a compound that inhibits visible growth, compared with the growth in the controls (in this case defined as presence/absence of color change). All experiments were performed in duplicate and in 3–6 independent tests.
# (§2) In order to determine possible additive or even synergistic effect of inhibitors, a method with calculation of the fractional inhibitory concentration index (FICI) was used (Pillai et al, [2005]). A combination of two inhibitors was applied (w/w 1:1) in the final concentration 1 mg/mL and subsequently diluted. The FICI index was calculated as FICI = (MICA/MICa) + (MICB/MICb), where MICA = concentration of inhibitor a in combination with inhibitor b; MICa = MIC of inhibitor a, applied as a single agent; MICB = concentration of inhibitor b in combination with inhibitor a; and MICb = MIC of inhibitor b applied as a single agent. The results were interpreted as a synergistic effect if the FICI was ≤ 0.5; as an additive effect if 0.5 < FICI ≤ 1; an indifferent effect if 1 < FICI ≤ 4; and as an antagonistic effect if the FICI was > 4 (Pillai et al. [2005]).
# [5] = system: H. pylori 26695 strain cells; test: Cellular uptake (accumulation test), detection by inhibition of the target enzyme (AdSS or PNP); format: cell-based; details: 8 h
# Procedure: Overnight cultures of H. pylori wild-type 26695 strain were grown by shaking (120 rpm) at 37 °C under microaerophilic conditions (5% O2, 10% CO2, 85% N2) in BHI medium (37 g/L) supplemented with 10% Fetal Bovine Serum and 1% Helicobacter pylori Selective Supplement. Cells were collected by centrifugation (5 min at 8000 × g at room temperature). The supernatant was decanted and the cell pellets were suspended in F12 medium (with L-glutamine and sodium bicarbonate) and centrifuged again. The supernatant was decanted again and cell pellets were resuspended in such a volume of F12 medium to obtain an OD600 of 4.0.
# (§3) The accumulation test was carried out in 24-deep-well 2 mL flat-bottomed plates, all in a final volume of 1 mL. Three types of samples were used, generated by mixing the following components in a 1:1 ratio: (1) concentrated and resuspended cells in F12 medium, (2) a solution of the appropriate concentration of a test compound in F12 medium, (3) F12 medium.
# The final concentrations of the tested compounds were 350 µM and 35 µM for formycin A and formycin B, and 35 μM for hadacidin. One set of three replicate samples was incubated at 37 °C, and the other set was incubated at 4 °C. […]
# where Km and Vmax are the Michaelis constant and maximal velocity, respectively, and Ki is the inhibition constant of the tested inhibitor, in our case hadacidin. […] These values, together with velocity measured for any tested supernatant, Cinhibitor_start , and velocity measured when only F12 medium is present, v, are sufficient to determine inhibitor concentration, Ctested , present in a tested supernatant, using Eq. (4), which is obtained by the rearrangement of Eq. (2) and Eq. (3):4 Ctested=Cinhibitor_start1/vtested-1/v/1/vinhibitor_start-1/v
# The formycin B uptake was studied in the same way, but instead of AdSS, PNP was used, since it is the target enzyme for this inhibitor. […] Specific activity is expressed as units per mg of protein (U/mg).
# [6] = system: H. pylori 26695 strain cells; test: Cellular uptake (accumulation test), UV absorption detection; details: 8 h
# Procedure: Cellular uptake of PNP inhibitors, formycin A (FA) and formycin B (FB), and the control compound, metronidazole (MTZ), was determined using the approach described by Zhou et al. ([2015]) for E. coli and Pseudomonas aeruginosa, adapted to conditions suitable for H. pylori cell growth. This method measures the change of extracellular drug concentration using LC–MS detection.
# Overnight cultures of H. pylori wild-type 26695 strain were grown by shaking (120 rpm) at 37 °C under microaerophilic conditions (5% O2, 10% CO2, 85% N2) in BHI medium (37 g/L) supplemented with 10% Fetal Bovine Serum and 1% Helicobacter pylori Selective Supplement. Cells were collected by centrifugation (5 min at 8000 × g at room temperature). The supernatant was decanted and the cell pellets were suspended in F12 medium (with L-glutamine and sodium bicarbonate) and centrifuged again. The supernatant was decanted again and cell pellets were resuspended in such a volume of F12 medium to obtain an OD600 of 4.0. F12 medium was selected for experiments because it is a minimal medium of defined composition and is suitable for measurements on MS.
# as §3
# The final concentrations of the tested compounds were 350 µM and 35 µM for formycin A and formycin B, and 35 μM for hadacidin. One set of three replicate samples was incubated at 37 °C, and the other set was incubated at 4 °C. Samples were taken at the start of the accumulation test, to check the concentration of the inhibitor at the start (named “Inhibitor_start,” “H. pylori + inhibitor_start”), then after 4 and 8 h of incubation at both temperatures. The obtained samples were centrifuged at 8000 × g for 5 min at 4 °C. The supernatant was collected for the LC–MS analysis (used for MTZ, FA, and FB uptake), UV absorption measurements (used for FA and FB uptake), and AdSS and PNP inhibition analysis (used for Hada and FB uptake).
# For cellular uptake of formycin A and formycin B, UV absorption was additionally used as a detection method. […] Nevertheless, there is some overlap between these spectra, and because of that, selective observation of formycins absorption is not possible. Moreover, during the cellular uptake experiment, H. pylori cells may take some UV absorbing nutrients from the medium, as well as release some metabolic products that also absorb in the UV region. Therefore, in the cellular uptake experiment, correction for absorption caused by these processes was introduced by including samples containing just H. pylori cells in F12 medium, incubated for 4 and 8 h at both temperatures, and subtracting absorption spectra of such supernatants.
# Samples in this case were the same as those evaluated by the LC–MS detection and by analysis of the inhibition of the PNP activity. The UV spectra of the supernatants, from experiments with 350 μM and at 35 μM inhibitor concentration, diluted with water 10 times and 2 times, respectively (with the absorbance of F12 medium, 10 times or 2 times diluted with water, as a reference), were measured. The absorbance at the most suitable wavelengths was used to calculate the formycin concentration. […]
# [7] = target: T1, purine nucleoside phosphorylase (PNP) from H. pylori 26695 strain (Helicobacter pylori, UniProt P56463); test: biochemical
# T1 sequence (P56463 whole entry): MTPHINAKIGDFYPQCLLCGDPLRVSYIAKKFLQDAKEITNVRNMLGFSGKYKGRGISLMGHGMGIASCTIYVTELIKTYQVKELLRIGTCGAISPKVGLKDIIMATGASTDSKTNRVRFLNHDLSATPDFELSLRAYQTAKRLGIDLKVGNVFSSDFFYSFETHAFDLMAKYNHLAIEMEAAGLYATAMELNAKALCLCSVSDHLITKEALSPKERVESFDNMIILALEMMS
# Procedure: (§4) Kinetic experiments with PNP, and also with AdSS, described in the section “AdSS and PNP inhibition detection of cellular uptake”, were performed on a double-beam UV/VIS spectrophotometer Cary 100, with thermostated Peltier cell holders (Varian: Agilent Technologies, Mulgrave, Vic., Australia). The inhibition constant was determined as the adjustable parameter in the global fitting of the competitive inhibition model to all data obtained, using the GraphPad Prism program (GraphPad Software, San Diego, CA, USA).
# [8] = system: H. pylori ATCC 26695 strain; test: MIC by broth microdilution and FICI of 1:1 combinations, strain 26695; format: cell-based; details: Helicobacter pylori, ATCC26695, 72 h, combinations 1:1 w/w given as inhibitor a/inhibitor b
# Procedure: as §1, §2
# [9] = target: T1, purine nucleoside phosphorylase (PNP) from H. pylori 26695 strain; details: m^7Guo as variable substrate, global fit, 25 °C, pH 7.0, 50 mM phosphate
# Procedure: as §4
# [10] = system: P. falciparum PNP; parameters: method as in Dziekan et al. [2019]; details: solution studies; ref Dziekan et al. [2019]; cited from earlier work
# [11] = target: adenylosuccinate synthetase (AdSS) from H. pylori 26695 strain; parameters: method as in Bubić et al. [2018]; details: H. pylori 26695 strain AdSS; ref Bubić et al. [2018]; cited from earlier work
# [12] = system: E. coli PNP; parameters: method as in Bzowska et al. [1992]; details: ref Bzowska et al. [1992]; cited from earlier work
# [13] = target: T1, purine nucleoside phosphorylase (PNP) from H. pylori 26695 strain; parameters: made in house; method as in Narczyk et al. [2018]; details: H. pylori 26695 strain PNP; ref Narczyk et al. [2018]; cited from earlier work
# [14] = starting concentration 35 µM, LC–MS, 8 h incubation, Eq. (1)
# [15] = starting concentration 350 µM, LC–MS, 8 h incubation, Eq. (1)
# [16] = H. pylori SS1, geometrical mean of repetitions
# [17] = starting concentration 350 µM, UV absorption at 294 nm
# [18] = H. pylori ATCC 26695, geometrical mean of repetitions
Structure (SMILES),Ionic form at pH 7 [1],pKa (first value) [2],pKa [2],"Intracellular accumulation [3, 14] [µM]","Intracellular accumulation [3, 15] [µM]","MIC [4, 16] [µg/mL]",MIC ([4]; H. pylori SS1) [mM],"Intracellular accumulation [6, 17] [µM]","MIC [8, 18] [µg/mL]",MIC ([8]; H. pylori ATCC 26695) [mM],also measured
O=c1[nH]cnc2c([C@@H]3O[C@H](CO)[C@@H](O)[C@H]3O)n[nH]c12 [Formycin B],Neutral,0.9,8.6,2.5 ± 0.5,7.1 ± 2.5,≥ 397,≥ 1.5,1.0 ± 7.4,> 1000,> 3.7,"Intracellular accumulation ([3]; starting concentration 350 µM, LC–MS, 8 h incubation, Eq. (1), listed as formycin B): up to 7.1 ± 2.5 µM; Intracellular accumulation ([5]; starting concentration 350 µM, PNP inhibition detection): 20.2 ± 34.0 µM; Intracellular accumulation ([6]; starting concentration 350 µM, UV absorption at 279 nm): 3.0 ± 9.2 µM; Ki [7]: 0.96 ± 0.08 µM"
"C[n+]1cn([C@@H]2O[C@H](CO)[C@@H](O)[C@H]2O)c2nc(N)[nH]c(=O)c21 [m^7Guo, 7-Methylguanosine]",,,,,,,,,,,Km [9]: 0.0463 ± 0.0044 mM; Vmax [9]: 12.5 ± 0.5 µmol/min/mg
C=C[C@H]1C[N@@]2CC[C@H]1C[C@H]2[C@H](O)c1ccnc2ccc(OC)cc12 [quinine],,,,,,,,,,,Binding affinity to P. falciparum PNP [10]: low nanomolar affinity
O=CN(O)CC(=O)O [Hadacidin],Anion,3.5,9.4,,,> 1000,> 8.4,,> 1000,> 8.4,"Ki [11]: 0.19 ± 0.02 µM; Intracellular accumulation ([5]; starting concentration 35 µM, AdSS inhibition detection): 4.9 ± 4.1 µM; Intracellular accumulation ([5]; starting concentration 35 µM, AdSS inhibition detection, listed as hadacidin): does not enter H. pylori cells"
Nc1ncnc2c([C@@H]3O[C@H](CO)[C@@H](O)[C@H]3O)n[nH]c12 [Formycin A],Neutral,4.6,9.7,15.9 ± 0.5,29.5 ± 5.3,> 1000,> 3.5,35.2 ± 7.1,≥ 870,≥ 3.1,"Ki [12]: 5.3 ± 0.4 µM; Intracellular accumulation ([3]; starting concentration 350 µM, LC–MS, 8 h incubation, Eq. (1), listed as formycin A): up to 29.5 ± 5.3 µM; Intracellular accumulation ([6]; starting concentration 35 µM, UV absorption at 305 nm): 6.7 ± 0.6 µM; Intracellular accumulation ([6]; starting concentration 350 µM, UV absorption at 305 nm, Eq. (1), no correction for metabolites): 22.2 ± 7.6 µM; Ki [13]: 14 ± 1.7 µM"
Cc1ncc([N+](=O)[O-])n1CCO [Metronidazole],Neutral,,,,,,,,,,"Intracellular accumulation ([3]; Helicobacter pylori, 8 h, 0.5 µM): 0.37 ± 0.01 µM"
